Experimental findings from patent publication US4443478A, “Prostaglandin analogues” (Ono Pharmaceutical Co., Ltd., priority 1981, dated 1984) are described below.

The test system of data set [1] is carbon tetrachloride-induced liver damage. Briefly: carbon tetrachloride-induced liver damage in rats. It counts as in vivo. To be noted: rat, in comparison with controls.
Another data set has as its system male mice. In words: acute toxicity by oral administration. The class given is in vivo, mouse. The protocol:
On the other hand, the compounds of the present invention were confirmed that their toxicities (i.e. LD50) were more than […] animal body weight by oral administration. Therefore, the compounds of the present invention may be considered to be sufficiently safe and suitable for medical use.

The test system of the next data set is blood pressure. In words: fall in blood pressure in the allobarbital-anaesthetized dog. It counts as in vivo. To be noted: intravenous.
Data set [2] relates to adenosine diphosphate-induced blood platelet aggregation. In words: inhibition of adenosine diphosphate-induced blood platelet aggregation in platelet-rich plasma. It counts as cell-based. To be noted: Homo sapiens; platelet-rich plasma of humans; read-out: concentration producing 50% inhibition of adenosine diphosphate-induced blood platelet aggregation.
Data set [3] has as its system α-naphthylisothiocyanate-induced liver damage. Briefly: α-naphthylisothiocyanate-induced liver damage in rats. The class given is in vivo. As to conditions: rat, oral, 100 μg/kg, in comparison with controls.
For data set [4], the system named is D(+)-galactoseamine-induced liver damage. Briefly: D(+)-galactoseamine-induced liver damage in rats. To be noted: rat, oral, 100 μg/kg, in comparison with control. The class given is in vivo.
Another data set deals with uterine contraction. Briefly: stimulation of uterine contraction in the pregnant female rat. The class given is in vivo. To be noted: 20th day of gestation, intravenous.
The test system of a further data set is stress ulceration. Briefly: inhibition of stress ulceration in rats. The class given is in vivo. As to conditions: rat, oral. The text has this:
For example, in standard laboratory tests, (i) in stress ulceration of rats [produced according to the methods of Takagi and Okabe, Jap.

Values after ≈ are worked out from the molar mass of the structure shown.

For `CCCC1CCC([C@H](O)/C=C/[C@H]2[C@H](O)CC(=O)[C@@H]2CC(=O)CCCCC(=O)CO)C1` (stereo partly drawn) [1-Hydroxymethyl-11α,15(S)-dihydroxy-15-(3-propylcyclopentyl)-16,17,18,19,20-pentanorprost-trans-13-ene-1,6,9-trione], in data set [1] (oral, 50 μg/kg), the “inhibition of plasma GOT (glutamic oxalacetic transaminase)” value turned out to be 46.7% and the “inhibition of plasma GPT (glutamic pyruvic transaminase)” value is 45.1%. Moreover, the “deaths in acute toxicity test” value in the data set with male mice (5 mg/kg) is “one death in 5 cases”. In the data set with blood pressure (0.1 μg/kg), the “duration of fall in blood pressure” value was determined as 9 min and the “fall in blood pressure” value is on record as 20 mm Hg. In the data set with blood pressure (0.2 μg/kg), the “duration of fall in blood pressure” value is 23 min and the “fall in blood pressure” value stood at 35 mm Hg. For the same compound, the IC50 in data set [2] was 0.0018 to 0.018 µg/mL (≈ 0.00426 to 0.0426 µM).

Take `CCCCC1CCC([C@H](O)/C=C/[C@H]2[C@H](O)CC(=O)[C@@H]2CC(=O)CCCCC(=O)CO)C1` (stereo partly drawn) [1-Hydroxymethyl-11α,15(S)-dihydroxy-15-(3-butylcyclopentyl)-16,17,18,19,20-pentanorprost-trans-13-ene-1,6,9-trione]: in data set [1] (oral, 50 μg/kg), the “inhibition of plasma GOT (glutamic oxalacetic transaminase)” value worked out at 54.9% and the “inhibition of plasma GPT (glutamic pyruvic transaminase)” value stood at 48.6%. In data set [3], the “inhibition of plasma GOT” value turned out to be 30.3%, the “inhibition of plasma GPT” value worked out at 41.7% and the “inhibition of plasma bilirubin” value was 15.2%. Also, the “deaths in acute toxicity test” value in the data set with male mice (10 mg/kg) came to 2 deaths in 5 cases. In the data set with blood pressure (0.5 μg/kg), the “duration of fall in blood pressure” value was 17 min and the “fall in blood pressure” value was determined as 20 mm Hg. Also, in the data set with blood pressure (1.0 μg/kg), the “duration of fall in blood pressure” value was found to be 40 min and the “fall in blood pressure” value is listed as 47 mm Hg. Also, in data set [4], the “inhibition of plasma GOT” value turned out to be 57.0%, the “inhibition of plasma GPT” value is on record as 54.0% and the “inhibition of plasma bilirubin” value was 63.0%. For the same compound, in the data set on uterine contraction (20 μg/kg), the “stimulation of uterine contraction” value is recorded as “stimulated uterine contraction”. Besides, the “stimulation of uterine contraction” value with uterine contraction (50 μg/kg) is on record as “stimulated uterine contraction”. In addition, in data set [2], the IC50 is 0.0036 to 0.072 µg/mL (≈ 0.00825 to 0.165 µM).

As to `CCCC[C@H](C)C[C@H](O)/C=C/[C@H]1[C@H](O)CC(=O)[C@@H]1CC(=O)CCCCC(=O)CO` (relative stereo) [1-Hydroxymethyl-11α,15(S)-dihydroxy-17(S),20-dimethylprost-trans-13-ene-1,6,9-trione], in data set [1] (oral, 50 μg/kg), the “inhibition of plasma GOT (glutamic oxalacetic transaminase)” value is reported as 58.0% and the “inhibition of plasma GPT (glutamic pyruvic transaminase)” value was 59.7%. In data set [1] (subcutaneous, 20 μg/kg), the “inhibition of plasma GOT (glutamic oxalacetic transaminase)” value was found to be 61.4% and the “inhibition of plasma GPT (glutamic pyruvic transaminase)” value is reported as 48.7%. In data set [3], the “inhibition of plasma GOT” value amounted to 49.0%, the “inhibition of plasma GPT” value is reported as 53.7% and the “inhibition of plasma bilirubin” value is 21.2%. Moreover, in the data set with male mice (5 mg/kg), the “deaths in acute toxicity test” value is listed as “no deaths in 10 cases”. The “deaths in acute toxicity test” value in the data set with male mice (10 mg/kg) is “no deaths in 10 cases”. Also, in the data set with blood pressure (0.3 μg/kg), the “duration of fall in blood pressure” value is 14 min and the “fall in blood pressure” value is listed as 6 mm Hg. In the data set on blood pressure (0.5 μg/kg), the “duration of fall in blood pressure” value came out at 29 min and the “fall in blood pressure” value came out at 15 mm Hg. In the data set on stress ulceration (20 μg/kg), the “inhibition of stress ulceration” value is 56.8%. For the same compound, the “inhibition of stress ulceration” value in the data set with stress ulceration (50 μg/kg) was 91.8%. Also, the “stimulation of uterine contraction” value in the data set on uterine contraction (20 μg/kg) is listed as “stimulated uterine contraction”.

Turning to `CCCC1CC([C@H](O)/C=C/[C@H]2[C@H](O)CC(=O)[C@@H]2CC(=O)CCCCC(=O)CO)C1` (relative stereo) [1-hydroxymethyl-11α,15(S)-dihydroxy-15-(3-propylcyclobutyl)-16,17,18,19,20-pentanorprost-trans-13-ene-1,6,9-trione], in data set [3], the “inhibition of plasma GOT” value was found to be 53.1%, the “inhibition of plasma GPT” value worked out at 61.3% and the “inhibition of plasma bilirubin” value came out at 30.3%.
